These results are taken from patent publication US11957646B2, “Methods and compositions of stable phenylephrine formulations” (Paragon BioTeck, Inc., priority 2013, dated 2024).

SMILES strings stand for the structures.

Data set [1] concerns vasopressor effect of (−)-epinephrine, (−)-norepinephrine, and tetraethylammonium. Conditions: anesthetized rats, infusion of large amount; cited from earlier work.
A short description of data set [2]: Chiral purity by chiral HPLC before and after 6 months storage at 2 to 8° C. It is filed as physicochemical. Conditions: 10% solution. The protocol: Column-OJ-RH (150×4.6) mm, Flow: 0.6 ml min-1, Mobile Phase: 0.05% Ethylenediamine in Methanol, Column Temp: 25° C.; Detection wavelength: 270 nm. 4.0 mg sample in 1 mL ethanol was analyzed. The injection volume to HPLC is 3.0 μL.
R-Phenylephrine Hydrochloride Opthalmic Solution, 2.5% and 10% prepared as in Example 1 were stored at 2 to 8° C. The chiral purity of Sample 1 (10% solution) was assessed before low temperature stability test.
The chiral purity of R-Phenylephrine Hydrochloride was determined by the method and conditions as shown in Example 3.

Data set [3] deals with rabbit pupil. The experiment in a line: Dilation assay of R and S form phenylephrine solutions on rabbits. It is filed as in vivo, NZW rabbits. Conditions: 10% solution, 3 drops, versus untreated eye. On the procedure: Two ophthalmic formulations, formulated 10% Phenylephrine hydrochloride (S-isomer) and the exemplary invention composition, 10% Phenylephrine hydrochloride (R-isomer) were tested for their ocular activity in NZW rabbits.
Both R and S form solutions (10% solution prepared as in Example 1) were test for dilation on rabbits. The first test rabbit received 3 drops of the S form formulation and the second test rabbit received 3 drops of the R form solution.

On to `CNCC(O)c1ccc(O)c(O)c1` (single isomer, unassigned; (+)) [(+)-epinephrine], for which the “tachyphylaxis to vasopressor effect” value in data set [1] is given as “induces tachyphylaxis”.
Take `NCC(O)c1ccc(O)c(O)c1` (single isomer, unassigned; (+)) [(+)-norepinephrine]: the “tachyphylaxis to vasopressor effect” value in data set [1] is “induces tachyphylaxis”.
`CNC[C@H](O)c1cccc(O)c1` [(−)-phenylephrine]: in data set [1], the “tachyphylaxis to vasopressor effect” value was “induces tachyphylaxis”.
In the case of `CNC[C@H](O)c1cccc(O)c1.Cl` [R-Phenylephrine Hydrochloride, (R)-3-hydroxy-α-[(methylamino)methyl]benzenemethanol hydrochloride], in data set [2] (before low temperature stability test), the “chiral purity before storage” value is on record as 99.3 % ee. The “chiral purity after 6 months storage” value in data set [2] (stored at 2 to 8° C. for 6 months) was determined as 99.3 % ee.
On to `CNC[C@@H](O)c1cccc(O)c1` [S-Phenylephrine], for which the “tachyphylaxis to vasopressor effect” value in data set [1] is given as “induces tachyphylaxis”. Moreover, the pupil dilation entry in data set [3] is recorded as “dilated the eye only slightly more than that was untreated”.
On to `CNCCc1ccc(O)c(O)c1` [epinine], for which, in data set [1], the “tachyphylaxis to vasopressor effect” value is listed as “induces tachyphylaxis”.
